Reference: ChEMBL document CHEMBL1201862, “PubChem BioAssay data set” (2004)
Calls of active or inactive are those of the source.

Assays:
Beta-galactosidase [1] = molecular target: T1, Beta-galactosidase (Escherichia coli, UniProt Q8VNN2); format: functional
[2] = molecular target: T2, Kappa-type opioid receptor (Homo sapiens, UniProt P41145); format: functional
Mu-type opioid receptor = Mu-type opioid receptor (Homo sapiens, UniProt P35372); experiment: HTS Image-Based Screen for Agonists of the MOR Receptor. [Related pubchem assays (depositor defined):AID1777, AID1785, AID1786, AID2133]; format: functional;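 further: imaging of beta-arrestin GFP recruitment into spots after receptor activation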
[3] = molecular target: T3, Delta-type opioid receptor (Homo sapiens, UniProt P41143); experiment: HTS Image-Based Screen for Antagonists of the DOR Receptor. [Related pubchem assays (depositor defined):AID1777, AID1785, AID1786, AID2133]; format: functional
[4] = molecular target: T2, Kappa-type opioid receptor; format: functional; remark: listed apart in the source
[5] = molecular target: T3, Delta-type opioid receptor; experiment: HTS Image-Based Screen for Agonists of the DOR Receptor. [Related pubchem assays (depositor defined):AID1777, AID1786, AID2133]; format: functional
[6] = molecular target: Alkaline phosphatase, placental type (Homo sapiens, UniProt P05187); experiment: human placental alkaline phosphatase inhibition – biochemical, luminescence, confirmation (AID 1512); format: functional
Cytochrome P450 2C9 = Cytochrome P450 2C9 (Homo sapiens, UniProt P11712)
[7] = molecular target: T4, Type-1 angiotensin II receptor (Homo sapiens, UniProt P30556); experiment: antagonism of angiotensin II type 1 receptor – cell-based, uHTS hits, selectivity assay for APJ receptor antagonist project, dose response (AID 463214); format: functional;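 further: antagonist potency against angiotensin II stimulated AT1 response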
T4 sequence (P30556 whole entry): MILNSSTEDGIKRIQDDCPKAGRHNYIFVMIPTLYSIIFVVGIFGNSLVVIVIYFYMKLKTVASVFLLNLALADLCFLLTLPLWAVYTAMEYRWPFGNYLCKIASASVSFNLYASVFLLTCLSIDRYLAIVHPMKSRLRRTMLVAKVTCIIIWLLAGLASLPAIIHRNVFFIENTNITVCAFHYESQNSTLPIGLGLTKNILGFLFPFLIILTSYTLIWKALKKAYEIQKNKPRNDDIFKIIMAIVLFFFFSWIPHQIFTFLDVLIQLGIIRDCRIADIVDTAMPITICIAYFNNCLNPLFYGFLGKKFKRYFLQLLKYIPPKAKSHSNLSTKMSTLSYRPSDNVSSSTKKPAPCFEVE

[8] = Trypanosoma cruzi growth suppression in host cells – NIH3T3 host cells, beta-gal luminescence, confirmation (AID 2044); format: functional, cell-based;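 further: intracellular parasites grown in NIH/3T3 mouse fibroblasts as host cells; luminescent beta-galactosidase reporter signal from transgenic T. cruzi replicating inside host cells; inhibitors lower the luminescence signal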
Prothrombin = Prothrombin (Bos taurus, UniProt P00735); experiment: thrombin protease inhibitors – biochemical, fluorescence polarization, uHTS hits, dose response (AID 602369); format: functional
[9] = molecular target: 26S proteasome non-ATPase regulatory subunit 14 (Homo sapiens, UniProt O00487); experiment: inhibition of proteasome subunit RPN11 – biochemical, fluorescence polarization, uHTS hits, confirmation (AID 602368); format: functional
[10] = Shn3 3'UTR reporter signal decrease – cell-based, Clone20 osteoblasts, firefly luciferase, cherry-pick, set 2, Schnurri-3 inhibitor project, dose response (AID 720490); format: functional;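 further: actives lower the luminescence signal as inhibitors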
Beta-galactosidase [11] = molecular target: T1, Beta-galactosidase; experiment: PubChem AID 485352; format: functional
[12] = molecular target: 72 kDa type IV collagenase (Homo sapiens, UniProt P08253); experiment: Dose Response validation of uHTS RPN11 inhibitor hits using a MMP-2 Fluorescence assay.; format: functional
[13] = NIH3T3 cell viability loss – ATP luminescence, mouse fibroblasts, counter-screen, dose response (AID 2010); format: functional, cell-based;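 further: cells exposed to compound for about 90 hours before reading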
[14] = loss of viability in HepG2 cells – cell-based, CellTiter-Glo, cherry-picked, cytotoxicity control for Shn3 inhibitor project, dose response (AID 624134); format: functional
[15] = reduction of Shn3 3'UTR-driven luciferase in osteoblasts – cell-based, Clone20 osteoblasts, firefly luciferase, cherry-picked, dose response (AID 624132); format: functional;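 further: firefly luciferase luminescence from reporter carrying the Shn3 3'UTR in osteoblasts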
[16] = molecular target: Photoreceptor-specific nuclear receptor (Homo sapiens, UniProt Q9Y5X4); format: functional;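 further: potency for compounds that break the NR2E3 corepressor complex and count as activators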
Beta-galactosidase [17] = molecular target: T1, Beta-galactosidase; experiment: detection-enzyme interference by beta-gal modulators – biochemical, E. coli enzyme, set 3, artefact control for CCR6 antagonist project, dose response (AID 504712); format: functional
[18] = molecular target: Peroxisome proliferator-activated receptor gamma/Nuclear receptor corepressor 2 (Homo sapiens, UniProt P37231+Q9Y618); format: functional

T1 sequence (Q8VNN2 whole entry): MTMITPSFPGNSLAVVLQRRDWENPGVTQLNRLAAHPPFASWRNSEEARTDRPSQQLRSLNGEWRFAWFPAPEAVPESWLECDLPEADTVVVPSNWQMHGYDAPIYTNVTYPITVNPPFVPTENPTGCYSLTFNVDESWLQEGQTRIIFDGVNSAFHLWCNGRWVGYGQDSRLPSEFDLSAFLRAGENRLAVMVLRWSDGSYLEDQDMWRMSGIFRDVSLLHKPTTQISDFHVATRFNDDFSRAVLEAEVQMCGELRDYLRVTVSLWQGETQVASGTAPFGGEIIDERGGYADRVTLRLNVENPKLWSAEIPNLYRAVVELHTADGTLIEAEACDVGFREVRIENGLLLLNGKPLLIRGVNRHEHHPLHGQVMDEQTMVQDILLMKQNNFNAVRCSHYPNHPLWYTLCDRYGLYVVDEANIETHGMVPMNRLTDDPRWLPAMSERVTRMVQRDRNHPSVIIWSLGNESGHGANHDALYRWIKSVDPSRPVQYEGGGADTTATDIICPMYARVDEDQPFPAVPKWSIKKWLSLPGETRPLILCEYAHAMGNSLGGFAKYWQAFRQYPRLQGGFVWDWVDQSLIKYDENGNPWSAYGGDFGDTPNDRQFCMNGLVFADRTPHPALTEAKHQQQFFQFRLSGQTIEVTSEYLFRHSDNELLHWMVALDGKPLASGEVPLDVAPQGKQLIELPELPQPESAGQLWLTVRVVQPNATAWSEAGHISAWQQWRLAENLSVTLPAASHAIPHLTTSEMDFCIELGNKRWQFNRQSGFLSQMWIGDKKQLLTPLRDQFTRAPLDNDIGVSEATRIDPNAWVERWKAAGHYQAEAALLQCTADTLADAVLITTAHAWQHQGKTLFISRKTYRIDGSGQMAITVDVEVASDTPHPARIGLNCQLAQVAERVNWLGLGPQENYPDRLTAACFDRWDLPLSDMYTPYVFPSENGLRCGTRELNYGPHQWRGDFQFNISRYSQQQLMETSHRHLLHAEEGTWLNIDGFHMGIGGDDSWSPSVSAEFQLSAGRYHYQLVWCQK
T3 sequence (P41143 whole entry): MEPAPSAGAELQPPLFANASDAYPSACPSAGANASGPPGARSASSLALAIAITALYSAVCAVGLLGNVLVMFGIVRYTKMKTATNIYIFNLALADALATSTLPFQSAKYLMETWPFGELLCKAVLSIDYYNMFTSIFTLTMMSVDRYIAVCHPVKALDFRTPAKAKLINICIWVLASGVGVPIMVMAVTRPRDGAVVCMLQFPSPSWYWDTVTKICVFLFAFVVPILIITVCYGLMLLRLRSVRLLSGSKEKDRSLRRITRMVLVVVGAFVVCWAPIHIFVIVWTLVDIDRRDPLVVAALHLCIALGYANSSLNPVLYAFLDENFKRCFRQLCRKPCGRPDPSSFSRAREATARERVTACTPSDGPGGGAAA
T2 sequence (P41145 whole entry): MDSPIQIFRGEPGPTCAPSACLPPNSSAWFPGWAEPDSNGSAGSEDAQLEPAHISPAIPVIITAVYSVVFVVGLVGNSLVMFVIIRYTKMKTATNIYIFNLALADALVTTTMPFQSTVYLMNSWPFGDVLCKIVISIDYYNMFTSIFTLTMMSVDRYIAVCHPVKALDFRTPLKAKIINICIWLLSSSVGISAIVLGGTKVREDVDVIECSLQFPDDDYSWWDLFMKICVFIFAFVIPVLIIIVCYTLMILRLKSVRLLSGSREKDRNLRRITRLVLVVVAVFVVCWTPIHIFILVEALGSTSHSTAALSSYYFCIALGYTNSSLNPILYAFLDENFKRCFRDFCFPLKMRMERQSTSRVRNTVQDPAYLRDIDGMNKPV
Mu-type opioid receptor, sequence (P35372 whole entry): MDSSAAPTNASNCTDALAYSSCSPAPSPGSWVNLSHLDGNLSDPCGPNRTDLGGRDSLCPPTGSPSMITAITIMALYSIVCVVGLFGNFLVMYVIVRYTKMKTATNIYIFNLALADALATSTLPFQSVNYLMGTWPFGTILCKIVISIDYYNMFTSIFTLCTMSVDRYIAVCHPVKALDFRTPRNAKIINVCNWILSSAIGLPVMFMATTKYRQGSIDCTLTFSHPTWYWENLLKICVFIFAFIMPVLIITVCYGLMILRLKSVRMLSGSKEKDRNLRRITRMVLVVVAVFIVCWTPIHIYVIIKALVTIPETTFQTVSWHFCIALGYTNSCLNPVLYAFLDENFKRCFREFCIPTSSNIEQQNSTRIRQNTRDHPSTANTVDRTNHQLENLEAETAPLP
Cytochrome P450 2C9, sequence (P11712 whole entry): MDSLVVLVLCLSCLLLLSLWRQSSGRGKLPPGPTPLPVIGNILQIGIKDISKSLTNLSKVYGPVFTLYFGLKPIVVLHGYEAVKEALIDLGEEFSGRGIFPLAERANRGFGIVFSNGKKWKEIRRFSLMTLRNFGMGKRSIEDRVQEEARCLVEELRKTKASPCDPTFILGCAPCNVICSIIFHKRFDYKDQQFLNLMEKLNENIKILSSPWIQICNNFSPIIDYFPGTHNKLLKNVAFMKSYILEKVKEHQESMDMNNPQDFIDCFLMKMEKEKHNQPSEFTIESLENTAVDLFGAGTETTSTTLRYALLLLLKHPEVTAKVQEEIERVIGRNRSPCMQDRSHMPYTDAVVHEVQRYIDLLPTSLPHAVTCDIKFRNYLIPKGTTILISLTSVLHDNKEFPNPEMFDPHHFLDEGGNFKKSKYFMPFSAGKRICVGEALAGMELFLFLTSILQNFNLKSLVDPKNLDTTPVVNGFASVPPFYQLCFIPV
26S proteasome non-ATPase regulatory subunit 14, sequence (O00487 whole entry): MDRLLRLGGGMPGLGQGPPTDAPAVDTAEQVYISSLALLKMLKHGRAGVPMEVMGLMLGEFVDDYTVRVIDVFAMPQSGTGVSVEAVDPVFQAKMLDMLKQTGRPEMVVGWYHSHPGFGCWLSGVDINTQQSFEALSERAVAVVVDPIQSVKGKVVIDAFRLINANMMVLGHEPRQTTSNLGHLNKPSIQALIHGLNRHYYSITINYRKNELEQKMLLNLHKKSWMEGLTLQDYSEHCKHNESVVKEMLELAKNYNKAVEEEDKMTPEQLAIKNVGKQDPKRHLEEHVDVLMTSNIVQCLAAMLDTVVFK
Photoreceptor-specific nuclear receptor, sequence (Q9Y5X4 whole entry): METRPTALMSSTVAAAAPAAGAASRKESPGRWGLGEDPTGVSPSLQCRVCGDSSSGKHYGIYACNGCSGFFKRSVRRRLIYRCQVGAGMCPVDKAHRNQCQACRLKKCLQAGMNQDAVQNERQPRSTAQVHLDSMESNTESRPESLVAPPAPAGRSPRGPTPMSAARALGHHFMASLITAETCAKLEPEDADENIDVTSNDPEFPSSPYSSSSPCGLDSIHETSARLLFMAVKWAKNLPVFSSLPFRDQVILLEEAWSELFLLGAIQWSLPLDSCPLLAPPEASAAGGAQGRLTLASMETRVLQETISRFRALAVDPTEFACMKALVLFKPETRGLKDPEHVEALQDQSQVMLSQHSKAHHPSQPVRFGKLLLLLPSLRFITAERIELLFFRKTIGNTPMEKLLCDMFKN
72 kDa type IV collagenase, sequence (P08253 whole entry): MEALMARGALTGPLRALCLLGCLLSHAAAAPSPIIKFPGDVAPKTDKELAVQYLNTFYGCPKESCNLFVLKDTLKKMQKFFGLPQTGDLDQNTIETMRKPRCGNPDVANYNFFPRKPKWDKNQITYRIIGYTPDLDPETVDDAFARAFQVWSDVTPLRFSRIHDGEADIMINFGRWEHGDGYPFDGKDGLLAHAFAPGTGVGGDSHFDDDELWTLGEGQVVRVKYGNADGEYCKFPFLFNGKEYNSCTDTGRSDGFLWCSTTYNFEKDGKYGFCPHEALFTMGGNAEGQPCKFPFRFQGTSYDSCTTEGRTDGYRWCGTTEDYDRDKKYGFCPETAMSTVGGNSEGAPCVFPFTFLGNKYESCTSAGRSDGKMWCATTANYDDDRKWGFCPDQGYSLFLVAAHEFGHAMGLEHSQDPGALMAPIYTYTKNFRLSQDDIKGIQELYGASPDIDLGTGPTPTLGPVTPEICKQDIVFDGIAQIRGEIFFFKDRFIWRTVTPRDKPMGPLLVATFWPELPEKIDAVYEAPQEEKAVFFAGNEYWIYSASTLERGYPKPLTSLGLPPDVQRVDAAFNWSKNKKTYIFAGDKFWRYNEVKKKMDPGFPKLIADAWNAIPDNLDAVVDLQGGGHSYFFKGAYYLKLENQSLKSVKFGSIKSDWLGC
Alkaline phosphatase, placental type, sequence (P05187 whole entry): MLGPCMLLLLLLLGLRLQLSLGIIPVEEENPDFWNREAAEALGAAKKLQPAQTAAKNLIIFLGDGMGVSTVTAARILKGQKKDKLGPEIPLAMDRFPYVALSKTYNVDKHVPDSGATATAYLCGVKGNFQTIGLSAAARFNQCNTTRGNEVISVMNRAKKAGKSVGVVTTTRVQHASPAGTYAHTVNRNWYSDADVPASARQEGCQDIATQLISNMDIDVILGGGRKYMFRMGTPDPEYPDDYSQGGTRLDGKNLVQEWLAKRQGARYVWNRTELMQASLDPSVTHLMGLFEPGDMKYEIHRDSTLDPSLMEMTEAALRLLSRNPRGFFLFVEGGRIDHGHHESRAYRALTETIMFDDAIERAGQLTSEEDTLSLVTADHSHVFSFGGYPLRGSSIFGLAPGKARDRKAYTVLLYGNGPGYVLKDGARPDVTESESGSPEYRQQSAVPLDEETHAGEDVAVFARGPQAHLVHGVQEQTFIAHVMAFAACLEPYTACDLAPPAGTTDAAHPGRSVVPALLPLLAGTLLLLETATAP

In the case of `COc1cc2c(c(OC)c1OC)-c1c(cc3c(c1OC)OCO3)C1OC2[C@@H](C)[C@H]1C` (some centres not stated), the EC50 (Beta-galactosidase [1]) is reported as > 31.5 µM (inactive), the IC50 [2] is reported as 10 µM (active) and the EC50 (Mu-type opioid receptor) is reported as > 32 µM (inactive). The IC50 [3] was > 32 µM (inactive), the IC50 [4] was 9.42 µM and the EC50 [5] was > 32 µM (inactive).
With `CC(=O)NNc1ncnc2c1cnn2-c1ccc(C)cc1` the IC50 [6] was > 100 µM (inactive).
For `Cc1cccc(CSc2cccc3cccnc23)c1`, the EC50 (Beta-galactosidase [1]) was > 31.5 µM (inactive), the IC50 [2] was 8.68 µM (active) and the AC50 (Cytochrome P450 2C9) was “inconclusive”. The EC50 (Mu-type opioid receptor) was > 32 µM (inactive), the IC50 [3] was > 32 µM (inactive) and the IC50 [4] was over 32 µM. The IC50 [7] was 10.1 µM (active), the EC50 [8] was 0.307 µM (active) and the IC50 (Prothrombin) was > 100 µM (inactive). For the same compound, the IC50 [9] was 21.5 µM (active), the AC50 [10] was 7.99 µM (active) and the EC50 (Beta-galactosidase [11]) was > 40 µM (inactive). For the same compound, the IC50 [12] was > 100 µM (inactive), the EC50 [5] was > 32 µM (inactive) and the EC50 [13] was 9.65 µM (active). For the same compound, the AC50 [14] was > 70 µM (inactive) and the AC50 [15] was 2.54 µM (active).
With `CCN(CC(=O)NC(C)(C)C)Cc1nc(O)c2cc(Br)cc(Br)c2n1` the IC50 [16] was > 39.8 µM (not active), the IC50 (Beta-galactosidase [17]) was > 66.6 µM (inactive) and the IC50 [18] was 15 µM (not active).
